Measurements from ChEMBL document CHEMBL4414617, “Identification of 2-Imidazopyridine and 2-Aminopyridone Purinones as Potent Pan-Janus Kinase (JAK) Inhibitors for the Inhaled Treatment of Respiratory Diseases” (J Med Chem, 2019).
Blank lines part the entries; values can stand above or below the molecule they belong to.

Tests used:
CHO-K1 = assay: cells; format: ADME, cell-based; conditions: Cricetulus griseus, CHO-K1, 24 h
Description: Cytotoxicity against CHOK1 cells assessed as reduction in ATP levels incubated for 24 hrs by ATPlite luminescence assay

[1] = target: Tyrosine-protein kinase JAK1 (Homo sapiens, UniProt P23458)
Sequence of Tyrosine-protein kinase JAK1 (P23458 whole entry): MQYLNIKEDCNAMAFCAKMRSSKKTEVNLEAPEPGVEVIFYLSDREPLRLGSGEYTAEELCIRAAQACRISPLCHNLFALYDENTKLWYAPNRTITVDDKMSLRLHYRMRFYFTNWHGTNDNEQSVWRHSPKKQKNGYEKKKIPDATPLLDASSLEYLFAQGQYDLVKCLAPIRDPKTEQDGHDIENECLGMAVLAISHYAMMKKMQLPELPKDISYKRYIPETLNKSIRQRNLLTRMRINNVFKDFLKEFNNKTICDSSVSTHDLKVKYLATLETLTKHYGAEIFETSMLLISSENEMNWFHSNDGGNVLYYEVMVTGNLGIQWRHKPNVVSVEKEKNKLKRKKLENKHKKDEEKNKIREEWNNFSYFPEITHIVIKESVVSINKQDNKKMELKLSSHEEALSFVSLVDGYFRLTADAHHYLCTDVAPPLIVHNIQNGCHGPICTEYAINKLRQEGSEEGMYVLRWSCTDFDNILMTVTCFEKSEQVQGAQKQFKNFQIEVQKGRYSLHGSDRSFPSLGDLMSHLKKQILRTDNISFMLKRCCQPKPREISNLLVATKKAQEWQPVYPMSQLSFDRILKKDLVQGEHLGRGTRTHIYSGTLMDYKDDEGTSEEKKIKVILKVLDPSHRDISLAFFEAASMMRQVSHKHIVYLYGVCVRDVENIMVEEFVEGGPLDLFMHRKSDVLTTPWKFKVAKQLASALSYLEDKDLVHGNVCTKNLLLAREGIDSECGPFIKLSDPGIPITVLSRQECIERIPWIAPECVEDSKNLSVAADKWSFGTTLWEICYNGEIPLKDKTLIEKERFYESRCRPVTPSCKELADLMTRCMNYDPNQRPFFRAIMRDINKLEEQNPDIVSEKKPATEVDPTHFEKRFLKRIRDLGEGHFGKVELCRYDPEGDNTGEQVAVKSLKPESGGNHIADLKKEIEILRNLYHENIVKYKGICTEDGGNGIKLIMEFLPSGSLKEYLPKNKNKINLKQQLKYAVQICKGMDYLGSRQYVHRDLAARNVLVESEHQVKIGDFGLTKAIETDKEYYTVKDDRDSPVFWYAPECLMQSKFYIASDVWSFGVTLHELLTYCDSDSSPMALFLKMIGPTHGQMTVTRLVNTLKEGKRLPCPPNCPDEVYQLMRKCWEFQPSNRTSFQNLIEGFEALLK
Description: Inhibition of recombinant human GST-tagged JAK1 (866 to 1154 residues) expressed in baculovirus expression system using PolyGT-Biotin as substrate measured after 3 to 20 hrs by HTRF assay

Cav1.2 = Cav1.2 (Homo sapiens, UniProt Q13936); assay: in vitro
Sequence of Cav1.2 (Q13936 whole entry): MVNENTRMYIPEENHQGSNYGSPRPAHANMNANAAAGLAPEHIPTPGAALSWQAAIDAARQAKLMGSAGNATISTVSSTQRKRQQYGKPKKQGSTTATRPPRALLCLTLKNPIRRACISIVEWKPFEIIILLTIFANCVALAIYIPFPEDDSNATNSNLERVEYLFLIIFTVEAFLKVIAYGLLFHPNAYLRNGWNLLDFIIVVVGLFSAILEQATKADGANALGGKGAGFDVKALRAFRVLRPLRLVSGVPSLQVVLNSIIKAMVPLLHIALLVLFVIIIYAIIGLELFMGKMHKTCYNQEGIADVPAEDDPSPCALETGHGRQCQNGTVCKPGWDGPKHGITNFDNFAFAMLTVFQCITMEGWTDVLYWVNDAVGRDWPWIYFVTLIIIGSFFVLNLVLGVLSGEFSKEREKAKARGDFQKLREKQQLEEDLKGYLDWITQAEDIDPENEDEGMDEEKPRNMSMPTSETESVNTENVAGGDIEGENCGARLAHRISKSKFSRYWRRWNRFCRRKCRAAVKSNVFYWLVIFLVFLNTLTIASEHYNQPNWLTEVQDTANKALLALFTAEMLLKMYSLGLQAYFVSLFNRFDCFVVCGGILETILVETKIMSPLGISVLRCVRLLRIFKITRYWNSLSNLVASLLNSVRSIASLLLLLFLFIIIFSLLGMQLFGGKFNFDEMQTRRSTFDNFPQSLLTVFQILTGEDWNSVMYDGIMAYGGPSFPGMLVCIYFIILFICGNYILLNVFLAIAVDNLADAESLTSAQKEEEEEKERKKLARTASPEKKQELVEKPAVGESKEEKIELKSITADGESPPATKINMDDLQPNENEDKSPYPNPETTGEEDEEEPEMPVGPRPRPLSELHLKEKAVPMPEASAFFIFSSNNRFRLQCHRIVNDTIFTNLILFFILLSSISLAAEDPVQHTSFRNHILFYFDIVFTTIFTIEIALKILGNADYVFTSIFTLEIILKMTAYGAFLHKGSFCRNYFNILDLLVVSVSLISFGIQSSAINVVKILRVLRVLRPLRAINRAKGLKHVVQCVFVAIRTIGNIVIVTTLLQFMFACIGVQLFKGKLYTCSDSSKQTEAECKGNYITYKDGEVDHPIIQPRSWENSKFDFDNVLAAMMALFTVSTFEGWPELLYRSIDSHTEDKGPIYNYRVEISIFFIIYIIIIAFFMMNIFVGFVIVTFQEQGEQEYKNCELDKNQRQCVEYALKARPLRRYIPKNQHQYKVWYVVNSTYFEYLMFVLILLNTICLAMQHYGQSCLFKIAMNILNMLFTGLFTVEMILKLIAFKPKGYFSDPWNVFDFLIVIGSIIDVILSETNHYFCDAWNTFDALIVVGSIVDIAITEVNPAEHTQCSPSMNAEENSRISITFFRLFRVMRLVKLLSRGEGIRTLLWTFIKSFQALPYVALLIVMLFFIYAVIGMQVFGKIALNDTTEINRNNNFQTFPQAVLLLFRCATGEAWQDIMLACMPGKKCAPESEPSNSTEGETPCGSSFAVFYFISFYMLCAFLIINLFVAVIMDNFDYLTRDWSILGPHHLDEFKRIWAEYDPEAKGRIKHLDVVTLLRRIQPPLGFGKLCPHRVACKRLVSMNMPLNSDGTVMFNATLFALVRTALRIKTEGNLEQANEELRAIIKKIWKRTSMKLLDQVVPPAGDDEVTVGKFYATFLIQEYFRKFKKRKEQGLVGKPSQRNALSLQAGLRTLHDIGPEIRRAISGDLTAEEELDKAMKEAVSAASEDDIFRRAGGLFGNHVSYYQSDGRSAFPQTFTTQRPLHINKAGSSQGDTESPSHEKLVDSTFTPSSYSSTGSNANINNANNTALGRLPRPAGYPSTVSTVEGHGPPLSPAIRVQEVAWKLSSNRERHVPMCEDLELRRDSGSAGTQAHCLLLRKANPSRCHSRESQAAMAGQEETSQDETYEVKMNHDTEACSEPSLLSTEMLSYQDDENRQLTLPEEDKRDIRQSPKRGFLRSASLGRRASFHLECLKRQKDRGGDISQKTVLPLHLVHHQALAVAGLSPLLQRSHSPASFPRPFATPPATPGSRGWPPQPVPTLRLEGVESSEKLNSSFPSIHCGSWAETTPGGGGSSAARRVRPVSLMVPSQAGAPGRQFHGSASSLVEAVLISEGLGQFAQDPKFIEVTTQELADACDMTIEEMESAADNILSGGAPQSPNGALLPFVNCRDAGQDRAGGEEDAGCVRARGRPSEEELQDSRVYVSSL
Description: Inhibition of Cav1.2 (unknown origin) at 10 uM relative to control

[2] = rat, in vivo, inhaled or intranasal, 3 mg/kg, 24 h
Description: Free maximum concentration of drug in Sprague-Dawley rat at 3 mg/kg administered intratracheally as nanosuspension measured up to 24 hrs by LC-MS/MS analysis

in vivo [3] = conditions: Wistar, rat, inhaled or intranasal
Description: Half life in Wistar rat at 0.41 mg/kg administered intratracheally as nanosuspension measured up to 24 hrs by LC-MS/MS analysis

in vitro [4] = conditions: PAMPA
Description: Apparent permeability of compound at 20 uM measured after 5 hrs by PAMPA

in vivo [5] = conditions: Sprague-Dawley, rat, inhaled or intranasal, 3 mg/kg
[6] = buffer
Description: Solubility of the compound in PBS with 0.2% Tween80 using nanosuspension formulation

[7] = buffer; remark: listed apart in the source
Description: Solubility of the compound in sterile water with 0.2% Tween80 using nanosuspension formulation

NaV1.5 = NaV1.5 (Homo sapiens, UniProt Q14524); assay: in vitro
Description: Inhibition of NaV1.5 (unknown origin) at 10 uM relative to control

in vitro [8] = conditions: rat, plasma
Description: Protein binding in rat plasma by LC-MS/MS-based equilibrium dialysis method

hERG (KCNH2) = hERG (KCNH2) (Homo sapiens, UniProt Q12809); assay: in vitro
Sequence of hERG (KCNH2) (Q12809 whole entry): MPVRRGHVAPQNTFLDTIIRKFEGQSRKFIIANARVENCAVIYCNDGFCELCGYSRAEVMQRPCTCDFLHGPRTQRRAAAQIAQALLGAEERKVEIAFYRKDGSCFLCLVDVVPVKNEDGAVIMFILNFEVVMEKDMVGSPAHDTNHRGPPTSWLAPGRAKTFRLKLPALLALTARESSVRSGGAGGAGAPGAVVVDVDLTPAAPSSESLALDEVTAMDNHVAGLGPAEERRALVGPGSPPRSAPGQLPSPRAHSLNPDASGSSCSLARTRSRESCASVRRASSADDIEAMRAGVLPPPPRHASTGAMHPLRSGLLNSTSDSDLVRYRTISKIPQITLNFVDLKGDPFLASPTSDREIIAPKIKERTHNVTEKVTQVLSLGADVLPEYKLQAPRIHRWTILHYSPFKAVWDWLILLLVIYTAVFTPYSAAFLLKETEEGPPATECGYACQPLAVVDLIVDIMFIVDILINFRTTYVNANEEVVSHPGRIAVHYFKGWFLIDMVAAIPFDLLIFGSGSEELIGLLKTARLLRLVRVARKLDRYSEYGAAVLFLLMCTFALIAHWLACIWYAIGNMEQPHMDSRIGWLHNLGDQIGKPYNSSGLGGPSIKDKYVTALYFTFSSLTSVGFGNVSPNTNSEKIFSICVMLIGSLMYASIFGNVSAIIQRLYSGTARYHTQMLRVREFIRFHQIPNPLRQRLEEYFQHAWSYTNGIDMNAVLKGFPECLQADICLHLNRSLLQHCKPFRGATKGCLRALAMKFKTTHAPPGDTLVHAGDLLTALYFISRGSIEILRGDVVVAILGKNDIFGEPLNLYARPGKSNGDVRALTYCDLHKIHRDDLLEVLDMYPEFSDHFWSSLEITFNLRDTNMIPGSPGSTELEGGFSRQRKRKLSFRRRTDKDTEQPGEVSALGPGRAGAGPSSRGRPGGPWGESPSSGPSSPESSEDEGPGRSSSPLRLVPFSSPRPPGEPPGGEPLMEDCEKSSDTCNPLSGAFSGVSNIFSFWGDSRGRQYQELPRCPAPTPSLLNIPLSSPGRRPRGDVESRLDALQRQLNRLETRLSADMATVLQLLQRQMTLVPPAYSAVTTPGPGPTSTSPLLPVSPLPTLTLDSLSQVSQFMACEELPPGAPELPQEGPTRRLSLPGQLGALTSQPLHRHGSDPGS
Description: Inhibition of human ERG at 10 uM relative to control

in vivo [9] = conditions: Wistar, rat, po, 30 mg/kg
in vitro [10] = conditions: human, microsomes
Description: Drug metabolism in human liver microsomes at 5 uM incubated for 30 mins by UPLC-MS/MS analysis

[11] = buffer, pH 1.2
Description: Chemical stability of compound at pH 1.2 to 9

in vivo [12] = conditions: Wistar, rat, inhaled or intranasal; remark: listed apart in the source
in vitro [13] = conditions: human, plasma
Description: Protein binding in human plasma by LC-MS/MS-based equilibrium dialysis method

physchem = conditions: octanol/water
Description: Lipophilicity, log D of compound

in vitro [14] = conditions: rat, microsomes
Description: Drug metabolism in rat liver microsomes at 5 uM incubated for 30 mins by UPLC-MS/MS analysis

in vivo [15] = conditions: Wistar, rat, po, 30 mg/kg; remark: listed apart in the source

Structure (SMILES): O=c1[nH]cc(F)cc1Nc1ncc2[nH]c(=O)n([C@@H]3CCOc4c(F)cccc43)c2n1
IC50 (CHO-K1): > 100 µM

Structure (SMILES): O=c1[nH]cc(Cl)cc1Nc1ncc2[nH]c(=O)n([C@@H]3CCOc4c(F)cccc43)c2n1
IC50 (CHO-K1): 36 µM

Structure (SMILES): C[C@H](c1ccc(F)cn1)n1c(=O)[nH]c2cnc(Nc3cc(F)c[nH]c3=O)nc21
IC50 (CHO-K1): > 100 µM

Structure (SMILES): C[C@H](c1ccc(F)cn1)n1c(=O)[nH]c2cnc(Nc3ccc[nH]c3=O)nc21
IC50 (CHO-K1): > 100 µM

Structure (SMILES): Cc1c[nH]c(=O)c(Nc2ncc3[nH]c(=O)n([C@@H]4CCOc5c(F)cccc54)c3n2)c1
IC50 (CHO-K1): 51 µM

IC50 [1]: 0.024 µM
Structure (SMILES): O=c1[nH]c2cnc(-c3cnc4ccc(F)cn34)nc2n1[C@@H]1CCOc2c(F)cccc21
IC50 (CHO-K1): 4 µM

Structure (SMILES): O=c1[nH]c2cnc(-c3cnc4ccc(F)cn34)nc2n1[C@H]1CC[C@H](O)CC1
IC50 (CHO-K1): 100 µM

IC50 [1]: 0.0035 µM
Structure (SMILES): C[C@H](c1ncc(F)cn1)n1c(=O)[nH]c2cnc(-c3cnc4ccc(F)cn34)nc21
IC50 (CHO-K1): 4.3 µM

fCmax [2]: 57 ng/mL
half-life at 24 h (in vivo [3]): 16.3 h
Papp at 5 h, 20 µM (in vitro [4]): 0.61 ×10⁻⁶ cm/s
AUC at 24 h (in vivo [5]): 406 ng·h/mL
solubility [6]: Soluble
solubility [7]: Soluble
fraction unbound (in vitro [8]): 0.21
AUC(0-inf) at 24 h (in vivo [9]): 32 ng·h/mL
metabolised at 0.5 h, 5 µM (in vitro [10]): 21%
Stability [11]: Stable
AUC at 24 h (in vivo [12]): 118 ng·h/mL
fraction unbound (in vitro [13]): 0.17
logD (physchem): 2.1
metabolised at 0.5 h, 5 µM (in vitro [14]): 17%
Cmax at 24 h (in vivo [15]): 7 ng/mL
Structure (SMILES): N#CC[C@H]1CC[C@H](n2c(=O)[nH]c3cnc(Nc4ccc[nH]c4=O)nc32)CC1
inhibition at 10 µM (Cav1.2): < 15%
inhibition at 10 µM (NaV1.5): < 15%
inhibition at 10 µM (hERG (KCNH2)): < 15%
IC50 (CHO-K1): > 100 µM

IC50 [1]: 0.079 µM
Structure (SMILES): C[C@]1(O)CC[C@H](n2c(=O)[nH]c3cnc(-c4cnc5ccc(F)cn45)nc32)CC1
IC50 (CHO-K1): 16 µM
